Experimental data: the supplement of paper PMC10307832

Experiments:
Assay in all cases: relative viability (nuclei count vs DMSO), 5 days (fraction); higher = more cells survive
Gemcitabine + Navitoclax = compound: Nc1ccn([C@@H]2O[C@H](CO)[C@@H](O)C2(F)F)c(=O)n1 [Gemcitabine] + CC1(C)CCC(c2ccc(Cl)cc2)=C(CN2CCN(c3ccc(C(=O)NS(=O)(=O)c4ccc(N[C@H](CCN5CCOCC5)CSc5ccccc5)c(S(=O)(=O)C(F)(F)F)c4)cc3)CC2)C1 [Navitoclax] (partner 0.5 µM)
Procedure, shortened: (§1)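 Relative viability equals treated-well nuclei counts divided by vehicle-well nuclei counts. Counts came from 4× images of lung cancer cell lines grown in 1536-well plates for 5 days after pin-tool dosing on the day after seeding. Dosing used one drug alone or a fixed anchor-drug dose plus five library-drug doses (not always all listed) in √10 steps, and values are medians of duplicate plates.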

Gemcitabine + Vorinostat = compound: Nc1ccn([C@@H]2O[C@H](CO)[C@@H](O)C2(F)F)c(=O)n1 [Gemcitabine] + O=C(CCCCCCC(=O)Nc1ccccc1)NO [Vorinostat] (partner 1 µM)
Procedure, shortened: as §1

Gemcitabine + Tozasertib = compound: Nc1ccn([C@@H]2O[C@H](CO)[C@@H](O)C2(F)F)c(=O)n1 [Gemcitabine] + Cc1cc(Nc2cc(N3CCN(C)CC3)nc(Sc3ccc(NC(=O)C4CC4)cc3)n2)n[nH]1 [Tozasertib] (partner 0.1 µM)
Procedure, shortened: as §1

Gemcitabine + Crizotinib = compound: Nc1ccn([C@@H]2O[C@H](CO)[C@@H](O)C2(F)F)c(=O)n1 [Gemcitabine] + C[C@@H](Oc1cc(-c2cnn(C3CCNCC3)c2)cnc1N)c1c(Cl)ccc(F)c1Cl [Crizotinib] (partner 1 µM)
Procedure, shortened: as §1

Cell Line | relative viability (Gemcitabine + Navitoclax; first compound 0.001 µM) | relative viability (Gemcitabine + Navitoclax; first compound 0.003162 µM) | relative viability (Gemcitabine + Navitoclax; first compound 0.01 µM) | relative viability (Gemcitabine + Navitoclax; first compound 0.03162 µM) | relative viability (Gemcitabine + Navitoclax; first compound 0.1 µM) | relative viability (Gemcitabine + Vorinostat; first compound 0.001 µM) | relative viability (Gemcitabine + Vorinostat; first compound 0.003162 µM) | relative viability (Gemcitabine + Vorinostat; first compound 0.01 µM) | relative viability (Gemcitabine + Vorinostat; first compound 0.03162 µM) | relative viability (Gemcitabine + Vorinostat; first compound 0.1 µM) | relative viability (Gemcitabine + Tozasertib; first compound 0.001 µM) | relative viability (Gemcitabine + Tozasertib; first compound 0.003162 µM) | relative viability (Gemcitabine + Tozasertib; first compound 0.01 µM) | relative viability (Gemcitabine + Tozasertib; first compound 0.03162 µM) | relative viability (Gemcitabine + Tozasertib; first compound 0.1 µM) | relative viability (Gemcitabine + Crizotinib; first compound 0.001 µM) | relative viability (Gemcitabine + Crizotinib; first compound 0.003162 µM) | relative viability (Gemcitabine + Crizotinib; first compound 0.01 µM) | relative viability (Gemcitabine + Crizotinib; first compound 0.03162 µM) | relative viability (Gemcitabine + Crizotinib; first compound 0.1 µM)
COR-L 105 | 0.792 | 0.581 | 0.544 | 0.291 | 0.263 | 0.82 | 0.726 | 0.56 | 0.336 | 0.27 | 0.38 | 0.31 | 0.349 | 0.263 | 0.191 | 1.09 | 0.825 | 0.577 | 0.286 | 0.197
LK-2 | 0.822 | 0.732 | 0.444 | 0.222 | 0.203 | 0.265 | 0.268 | 0.155 | 0.164 | 0.146 | 0.162 | 0.157 | 0.21 | 0.183 | 0.165 | 0.285 | – | 0.255 | 0.238 | 0.225
NCI-H727 | 0.311 | 0.229 | 0.115 | 0.146 | 0.081 | 1.29 | 0.716 | 0.456 | 0.513 | 0.428 | 0.571 | 0.443 | 0.352 | 0.431 | 0.321 | 0.771 | 0.32 | 0.243 | 0.266 | 0.219
RERF-LC-KJ | 1.05 | 1.26 | 0.872 | 0.224 | 0.227 | 0.661 | 0.682 | 0.709 | 0.452 | 0.246 | 0.596 | 0.543 | 0.578 | 0.323 | 0.229 | 0.901 | 0.866 | 0.844 | 0.73 | 0.252
NCI-H2023 | 0.986 | 0.794 | 0.667 | 0.135 | 0.0835 | 0.773 | 0.388 | 0.259 | 0.0711 | 0.061 | 0.409 | 0.385 | 0.233 | 0.101 | 0.0648 | 0.702 | 0.633 | 0.504 | 0.095 | 0.0687
NCI-H322M | 0.96 | 0.52 | 0.286 | 0.207 | 0.228 | 0.864 | 0.408 | 0.337 | 0.384 | 0.44 | 0.459 | 0.407 | 0.288 | 0.316 | 0.283 | 0.85 | 0.357 | 0.269 | 0.219 | 0.212
NCI-H1666 | 0.872 | 0.836 | 0.393 | 0.281 | 0.275 | 1.02 | 0.955 | 0.963 | 0.927 | 0.576 | 0.622 | 0.615 | 0.582 | 0.387 | 0.337 | 0.959 | 1.16 | 0.596 | 0.321 | 0.268
SW 900 | – | – | – | – | – | 0.476 | 0.374 | 0.236 | 0.129 | 0.146 | 0.462 | 0.241 | 0.127 | 0.0969 | 0.109 | – | – | – | – | –
NCI-H2087 | 1.11 | 0.813 | 0.397 | 0.156 | 0.153 | 0.862 | 0.174 | 0.304 | 0.0713 | 0.109 | 0.31 | 0.204 | 0.139 | 0.0946 | 0.0735 | 0.963 | 0.8 | 0.405 | 0.133 | 0.161
LU99A | 0.875 | 0.976 | 0.667 | 0.871 | 0.474 | 0.509 | 0.577 | 0.502 | 0.523 | 0.531 | 0.26 | 0.322 | 0.294 | 0.327 | 0.265 | 0.577 | 0.648 | 0.567 | 0.567 | 0.562
HCC-366 | 1.03 | 1.01 | 0.656 | 0.014 | 0.0109 | 0.361 | 0.458 | 0.134 | 0.0306 | 0.0198 | 0.14 | 0.105 | 0.0801 | 0.0228 | 0.0235 | 0.629 | 0.588 | 0.0778 | 0.0184 | 0.0078
EKVX | 0.93 | 0.89 | 0.0897 | 0.133 | 0.0934 | 0.747 | 0.686 | 0.618 | 0.27 | 0.217 | 0.456 | 0.376 | 0.257 | 0.12 | 0.106 | 1 | 0.872 | 0.387 | 0.169 | 0.159
NCI-H2342 | – | – | – | – | – | 0.732 | 0.56 | 0.452 | 0.346 | 0.289 | 0.456 | 0.451 | 0.427 | 0.279 | 0.268 | – | – | – | – | –
NCI-H1755 | 0.925 | 1.04 | 0.827 | 0.256 | 0.153 | 0.804 | 0.751 | 0.599 | 0.469 | 0.313 | 0.594 | 0.564 | 0.411 | 0.321 | 0.252 | 0.92 | 0.845 | 0.681 | 0.268 | 0.218
NCI-H647 | 0.916 | 0.253 | 0.0668 | 0.0642 | 0.0514 | 0.435 | 0.129 | 0.0559 | 0.0673 | 0.0443 | 0.395 | 0.098 | 0.0474 | 0.0387 | 0.0371 | 1.09 | 0.195 | 0.0721 | 0.0642 | 0.0615
LC-2-ad | 0.431 | 0.4 | 0.236 | 0.118 | 0.0927 | 0.7 | 0.804 | 0.665 | 0.522 | 0.199 | 0.497 | 0.407 | 0.379 | 0.191 | 0.2 | 0.471 | – | 0.427 | 0.162 | 0.109
NCI-H1793 | 0.488 | 0.474 | 0.169 | 0.216 | 0.151 | 0.985 | 0.62 | 0.152 | 0.148 | 0.106 | 0.421 | 0.507 | 0.202 | 0.133 | 0.12 | – | – | – | – | –
